Measurements from patent publication US6140364A, “Arachidonic acid metabolite, 16-HETE” (The University of Vermont and State Agricultural College, priority 1996, dated 2000).

Key:
neutrophil aggregation = test: Neutrophil aggregation (inventors' finding, method not given at the place); assay type: cell-based
[1] = tested on: basal human neutrophils (adhesion to a gelatin matrix); test: Neutrophil adhesion to gelatin matrix, basal (unstimulated); assay type: cell-based; conditions: for inhibition at 1 µM: Homo sapiens, Neutrophil, 10 min preincubation; for inhibition of neutrophil adhesion, basal: 20-HETE at ≤10 μM, 16-HETE isomers 10^-8 to 10^-5 M; for potency of neutrophil inhibition relative to the other stereoisomer: unstimulated and stimulated neutrophils
Method: (§1) Preparation of human polymorphonuclear leukocytes: Venous blood (60-70 ml) was collected from four healthy, normal volunteers into syringes containing heparin (1 U/ml). Polymorphonuclear leukocytes (PMNs) were isolated by a histopaque density gradient technique as previously described in Liu et al., Adhesion, Its role in Inflammatory Disease, Freeman and Co., New York, 1992, pp 189-192. Briefly, blood aliquots (6 ml) were layered over two layers (3 ml) of histopaque 1077 and 1119 in a conical centrifuge tube. The sample was then subjected to centrifugation at 100× g for 30 minutes at room temperature and the top layer, containing the neutrophils, was carefully collected. Hypotonic lysis was used to separate out the red blood cells. The neutrophils were then isolated from the sample by centrifugation (2000× g) and suspended in Hanks balanced salt solution (HBSS) containing 1 mM Ca^2+ and 0.8 mM Mg^2+ for studies involving arachidonic acid metabolism, and in M199 (with 1% BSA) for neutrophil adhesion assays. Total cells were counted using a hemocytometer and leukocytes were counted after staining with Wright-Giemsa stain. For each experiment, the cell preparations used contain ≥97% neutrophils, having ≥95% viability as determined by a trypan blue exclusion assay.
Neutrophil adhesion: Isolated neutrophils were resuspended in M199 containing 1% BSA with a final concentration of 3×10^6 cells per ml. Cells suspensions (1 ml) were incubated with or without a test compound, 16(S)-HETE, 16(R)-HETE, or 20-HETE (concentrations 1 nM to 10 μM) for 10 min and then placed into gelatin-coated wells and further incubated for 20 min at 37° C. The wells were washed three times with 0.5 ml of solution M199 to remove non-adherent cells. The adherent cells were then removed by addition of 0.4 ml of 0.25% trypsin-EDTA in 0.1 M PBS to the gelatin-coated wells and incubation for 10 min at 37° C. The incubates were transferred and the wells were washed with 0.1 ml of M199 solution. The amount of cells in combined solutions was counted. In some experiments, the adhesion of neutrophils was stimulated by addition of 1 U/ml of thrombin to neutrophil suspension immediately prior to the transfer of cells to the wells. Experiments were performed in duplicates for each concentration of HETE. The inhibition of adhesion was expressed as percent of cells remaining in suspension (non-adherent) relative to control. The range of adherent PMNs in control incubations was 6 to 23%. This was increased two-fold in the presence of thrombin.

[2] = tested on: thrombin-stimulated human neutrophils (adhesion to a gelatin matrix); test: Neutrophil adhesion to gelatin matrix, thrombin-stimulated; assay type: cell-based; conditions: for inhibition at 1 µM: Homo sapiens, Neutrophil, thrombin 1 U/ml, 3×10^6 cells/ml, 10 min preincubation
Method: as §1
Neutrophil adhesion: Isolated neutrophils were resuspended in M199 containing 1% BSA with a final concentration of 3×10^6 cells per ml. Cells suspensions (1 ml) were incubated with or without a test compound, 16(S)-HETE, 16(R)-HETE, or 20-HETE (concentrations 1 nM to 10 μM) for 10 min and then placed into gelatin-coated wells and further incubated for 20 min at 37° C. The wells were washed three times with 0.5 ml of solution M199 to remove non-adherent cells. The adherent cells were then removed by addition of 0.4 ml of 0.25% trypsin-EDTA in 0.1 M PBS to the gelatin-coated wells and incubation for 10 min at 37° C. […] The amount of cells in combined solutions was counted. […] The inhibition of adhesion was expressed as percent of cells remaining in suspension (non-adherent) relative to control. […]

[3] = tested on: neutrophil aggregation stimulated by fMLP; test: fMLP-induced neutrophil aggregation in diluted whole human blood; assay type: cell-based; conditions: for inhibition at 1 µM: 10 min, 1 μM HETE, N = 3 to 4, read-out: Aggregation (percent of inhibition from HETE untreated cells); for inhibition of fMLP-induced neutrophil aggregation: ≤10 μM
Method: (§2) Neutrophil activity: Stimulated neutrophil aggregation and oxygen free radical release were examined in whole human blood using a whole-blood aggregometer-chemiluminometer (Chronolog, Haverton, Pa.) as described Bednar et al. J. Thromb. Thrombol. 1, 179-185 (1995). Blood samples containing heparin (1 U/ml) as the anticoagulant were diluted in HBSS in proportion 1 to 9. Diluted blood aliquots (1 ml) were stirred (400 rpm) in a prewarmed (37° C.) siliconized cuvette containing cytochalasin b (5 μg/ml) and luminol (in 8 μl DMSO, 500 μM final concentration) and the test HETE (concentration 0.01 to 10 μM) for 10 min. Neutrophils were stimulated with a submaximal dose of FMLP (5×10^-7 M final concentration). The aggregation and chemiluminescence were simultaneously measured as changes of impedance and luminescence respectively. The fMLP-induced chemiluminescence was calculated as the peak height of the reaction.

[4] = tested on: oxygen free radicals (OFR) release stimulated by fMLP; test: fMLP-stimulated oxygen free radical (OFR) release, chemiluminescence, in diluted human blood; assay type: cell-based; conditions: 10 min, 1 μM HETE, fMLP 5×10^-7 M, N = 3 to 4, read-out: OFR Release (percent of inhibition from HETE untreated cells)
Method: as §2

human neutrophils = test: Agonist activity on human neutrophils; assay type: cell-based; conditions: ≤20 μM
[5] = tested on: platelet or other leukocyte; test: Platelet or other leukocyte activity or function
[6] = tested on: formation of product A by human neutrophils; test: Inhibition of arachidonic acid metabolism (formation of product A) in intact human neutrophils; assay type: cell-based; conditions: SKF 525A 100 μM, BW755C 94 μM, 10 min preincubation
Method: as §1, with “The neutrophils were then isolated from the sample by centrifugation (2000× g) and suspended in Hanks balanced salt solution (HBSS) containing 1 mM Ca^2+ and 0.8 mM Mg^2+ for studies involving arachidonic acid metabolism, and in M199 (with 1% BSA) for neutrophil adhesion assays.” left out, “assay. […]” for “assay.”
After ten minutes in arachidonic acid the reaction was terminated by the addition of cold methanol (four volumes). […] The effluent was passed through a UV detector (HP1050/ChemStation-Hewlett-Packard, Palo Alto, Calif.) and a radioactivity detector (Radiomatic, Meridian, Conn.) with a splitter (ratio 1:10) and collected in 1 ml fractions.

[7] = tested on: intact canine and human neutrophils; conditions: cited from earlier work
[8] = Neutrophil, fMLP 5×10^-7 M, diluted human blood

CCCCC[C@H](O)/C=C/C=C\C/C=C\C/C=C\CCCC(=O)O [15-HETE]
inhibition of neutrophil aggregation (neutrophil aggregation): neither 20-HETE nor 15-HETE inhibited neutrophil aggregation

CCCC[C@@H](O)/C=C\C/C=C\C/C=C\C/C=C\CCCC(=O)O [16(R)-HETE, 16(R)-hydroxy-5,8,11,14-eicosatetraenoic acid]
inhibition of neutrophil adhesion to gelatin ([1]; 10 μM, preincubation): completely inhibited
inhibition at 1 µM ([1]; gelatin matrix): 73 ± 11%
inhibition of neutrophil adhesion, basal [1]: inhibited neutrophil adhesion in a dose-dependent manner
preincubation time required to inhibit adhesion ([1]; gelatin matrix): 10 min
potency of neutrophil inhibition relative to the other stereoisomer [1]: more potent than the effect observed with the opposite stereoisomer
inhibition at 1 µM [2]: 50 ± 4%
inhibition at 1 µM [3, 8]: 42 ± 11%
IC50 ([3]; Neutrophil, fMLP 5×10^-7 M, diluted human blood, read-out: IC50, inhibition of fMLP-induced neutrophil aggregation): 1.2 µM
inhibition at 1 µM [4]: 8.9 ± 5.1%
agonist activity on human neutrophils (human neutrophils): no detectable agonist activity

CCCC[C@H](O)/C=C\C/C=C\C/C=C\C/C=C\CCCC(=O)O [16(S)-HETE, S-stereoisomer of 16-hydroxyeicosatetraenoic acid]
inhibition at 1 µM ([1]; gelatin matrix): 39 ± 8%
inhibition of neutrophil adhesion, basal [1]: inhibited neutrophil adhesion in a dose-dependent manner
potency of neutrophil inhibition relative to the other stereoisomer [1]: less potent
inhibition at 1 µM [2]: 40 ± 14%
inhibition at 1 µM [3, 8]: 7 ± 3.5%
inhibition of fMLP-induced neutrophil aggregation [3]: not active
inhibition at 1 µM [4]: 5.6 ± 16.7%
agonist activity on human neutrophils (human neutrophils): no detectable agonist activity

CCCCC(O)/C=C\C/C=C\C/C=C\C/C=C\CCCC(=O)O (stereo not shown) [16-HETE, 16-hydroxyeicosatetraenoic acid]
effect on platelet or other leukocyte activity or function [5]: does not affect platelet or other leukocyte activity or function

O=C(O)CCC/C=C\C/C=C\C/C=C\C/C=C\CCCCCO [20-HETE, reference compound]
inhibition of neutrophil adhesion, basal [1]: did not inhibit neutrophil adhesion
inhibition of neutrophil adhesion, thrombin-stimulated ([2]; thrombin-stimulated, 20-HETE at ≤10 μM, 16-HETE isomers 10^-8 to 10^-5 M): did not inhibit neutrophil adhesion
inhibition at 1 µM [3, 8]: 8.1 ± 2.6%
inhibition of fMLP-induced neutrophil aggregation [3]: not active
inhibition at 1 µM [4]: 3.9 ± 13.4%
agonist activity on human neutrophils (human neutrophils): no detectable agonist activity
inhibition of neutrophil aggregation (neutrophil aggregation): neither 20-HETE nor 15-HETE inhibited neutrophil aggregation

NC1=NN(c2cccc(C(F)(F)F)c2)CC1 [BW755C]
inhibition of formation of product A [6]: not with BW755C

CCCC(C(=O)OCCN(CC)CC)(c1ccccc1)c1ccccc1 [SKF525A]
inhibition of formation of product A [6]: can be inhibited with SKF525A
inhibition of formation of polar arachidonic acid metabolites [7]: formation can be inhibited

[C-]#[O+] [carbon monoxide]
inhibition of formation of polar arachidonic acid metabolites [7]: formation can be inhibited
